Legend:
Cu(II)-Aβ = assay: Aβ aggregation inhibition, gel electrophoresis and Western blotting with anti-Aβ antibody (6E10); type: biochemical
Source text: It was examined whether the benzene diamine derivatives of the present disclosure have inhibitory effects on Aβ aggregation. Aβ has two isoforms, and therefore, effects on Aβ40 and Aβ42 were examined, respectively. When metals are involved in protein folding, the probability of abnormal folding is high. In this case, the probability of Aβ aggregate formation is further increased.
In order to perform molecular analysis of Aβ aggregation-inhibitory effects of the benzene diamine derivatives of the present disclosure, gel electrophoresis and Western blotting were performed by using anti-Aβ antibody (6E10). As a control group, compound 1
In detail, each sample (10 μl) was separated on a 10-20% Tris-tricine gel (Invitrogen, Grand Island, N.Y., USA). After separation, the proteins were transferred onto a nitrocellulose membrane and blocked with bovine serum albumin (BSA, 3% w/v, Sigma-Aldrich, St Louis, Mo., USA) in Tris-buffered saline (TBS) containing 0.1% Tween-20 (TBS-T) at room temperature for 2 hours or at 4° C. overnight. The membrane was incubated in a 2% BSA (w/v in TBS-T) solution, together with anti-Aβ antibody (6E10, 1:2,000, Covance, Princeton, N.J., USA), at room temperature for 4 hours or at 4° C. overnight. The membrane was washed with TBS-T (3×, 10 min), and a secondary mouse antibody (1:5,000 in 2% BSA w/v in TBS-T; Cayman Chemical Company, Ann Arbor, Mich., USA) was added thereto, followed by incubation at room temperature for 1 hour. Thermo Scientific SuperSignal West Pico Chemiluminescent Substrate (Thermo Scientific, Rockford, Ill., USA), Biosesang ECL Plus kit (Biosesang, Gyeonggi-do, Republic of Korea), or homemade ECL kit53 were used for visualization, and ChemiDoc MP Imaging System (Bio-Rad, Hercules, Calif., USA) was used for detection.

[1] = system: APP/PS/Tau dementia mouse model; assay: Morphological change of brain of dementia mouse model; type: in vivo; settings: oral 100 μg/kg twice a week for 2 months, FIG. 6
Source text: In order to examine therapeutic effects of the benzene diamine derivatives on dementia, dementia mouse models were orally administered with the benzene diamine derivative, and morphological changes in the brains thereof were examined.
In detail, APP/PS/Tau was purchased as the dementia mouse model from Jackson lab (BAR HARBOR, USA), and APP/Tau female and APP/PSen1de9 purchased from Taconic (Hudson, USA) were cross-mated for 6 generations, and 4-month-old mouse models were obtained from F1. The dementia mouse models were divided into groups of 6 mice, and among the dementia mouse models, a control group was orally administered with a vehicle (PBS) for 2 months, and an experimental group was orally administered with 100 μg/kg/0.1 ml of N^1-(pyridin-2-ylmethyl)benzene-1,4-diamine (Compound 2) twice a week for 2 months. Thereafter, the mice were sacrificed, and their brains were removed. Their longitudinal sections were cut, and morphological changes were examined. For comparison, a normal mouse was sacrificed and its brain was removed. Its longitudinal section was cut, and morphological changes were examined.

[2] = system: APP/PS/Tau dementia mouse model; assay: Morris water maze test, memory capacity of dementia mouse model; type: in vivo; settings: oral 100 μg/kg twice a week for 2 months
Protocol: In order to investigate enhancement of spatial cognition and memory in dementia mouse models by the benzene diamine derivatives of the present disclosure, a Morris water maze (Harvard Apparatus, USA) test was performed.
In detail, a water maze composed of a stainless steel pool with a diameter of 150 cm×a height of 60 cm and an escape platform (10 cm in diameter, 30 cm in height) was filled with water at 22±2° C., and the height was 2 cm above the platform such that when a mouse sat on the escape platform, the body was allowed to come out of the water. […] Escape latency was measured as the time taken for the experimental animal to go to the escape platform when the experimental animal went to the escape platform and stayed thereon for more than 20 seconds. This test was performed three times a day, and a mean value was determined as mean escape latency. The escape latency was recorded on the computer program (Smart Video Tracking System V3.0, PanLab SL, Barcelona, Spain) by installing a camera on the ceiling above the water tank. The experiment was performed three times a day for 6 days, and at this time, the possibility of accidentally visiting the escape platform was minimized by sequentially changing the positions of the experimental animals in the water tank. In the experiment, a normal mouse, a control dementia mouse administered with a vehicle (PBS) and an experimental dementia mouse administered with 100 μg/kg of N^1-(pyridin-2-ylmethypenzene-1,4-diamine (Compound 2) twice a week for 2 months were used after completing administration, as in Experimental Example 1.

monomeric Aβ42 = molecular target: T1, monomeric Aβ42 (Homo sapiens, UniProt P05067); assay: Brain tissue immunohistofluorescence, monomeric Aβ (BAM-10) and plaques (MX04); type: in vivo, mouse; settings: oral 100 μg/kg twice a week for 2 months, confocal, FIG. 7
T1 construct: from tissue; host or cells: brain of dementia mouse models
Protocol: Overexpression of monomeric Aβ may increase formation of oligomeric Aβ, Aβ aggregates, and amyloid plaques to cause neuronal cytotoxicity. Therefore, anatomical analysis of the brain tissue was performed to examine whether the benzene diamine derivatives of the present disclosure inhibit monomeric Aβ formation in dementia mouse models.
As in Experimental Example 1, a control group was orally administered with a vehicle for 2 months, and an experimental group was orally administered with 100 μg/kg/0.1 ml of N^1-(pyridin-2-ylmethyl)benzene-1,4-diamine (Compound 2) twice a week for 2 months. The brain was taken from a non-treated dementia mouse model (4 months), and the brains of the control group and the experimental group were also taken after the administration. Each mouse was anesthetized with ketamine, and then the skull was incised. The brain was then embedded in paraffin and subjected to immunohistofluorescence staining. The brain tissues were fixed in formalin and sectioned at a thickness of 50 μm by using a vibrotome, and each tissue was placed on a glass slice. For comparison of monomeric Aβ, BAM-10 monoclonal anti-Aβ primary antibody labeled with QD525 probe (green fluorescence) was used to examine changes in the quantity of monomeric Aβ42. […]

Aβ aggregates = assay: Brain tissue staining of Aβ aggregates with Thioflavin T; type: in vivo, mouse; settings: oral 100 μg/kg twice a week for 2 months, confocal, FIG. 9
Protocol: Like oligomeric Aβ, Aβ aggregates in the brain tissue may cause neuronal cell death by neuronal cytotoxicity, which may cause dementia. Therefore, anatomical analysis of the brain tissue was performed to examine whether the benzene diamine derivatives of the present disclosure inhibit neuronal cytotoxicity by Aβ aggregates in dementia mouse models.
In detail, as in Experimental Example 7-1, the dementia mouse models were prepared and their brain tissues were stained. Aβ aggregates in the brain tissue were labeled with Thioflavin T (ThT, Sigma-Aldrich) (green fluorescence), plaques were stained with a fluorescent staining reagent MX04 (blue), and incubated at 4° C. for 12 hours. Thereafter, the tissues were observed under a confocal microscope at 0.5×10.

T1 sequence (P05067 672-713 limits assumed): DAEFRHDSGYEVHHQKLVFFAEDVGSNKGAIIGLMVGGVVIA

Nc1ccc(NCc2ccccn2)cc1 [Compound 2, N^1-(pyridin-2-ylmethyl)benzene-1,4-diamine]
Cu(II)-Aβ (inhibitory effect on Aβ aggregation) (Cu(II)-Aβ; Table 1 summary of Example 2, symbols not defined): ◯ | Cu(II)-Aβ-inhibitory effect (Cu(II)-Aβ; two kinds of Aβ, FIG. 1): very excellent Cu(II)-Aβ-inhibitory effect on two kinds of Aβ | brain morphology / longitudinal section [1]: brain morphology similar to that of the normal group | difference in mean escape latency vs control group at 4 days ([2]; AD mice): 16 s | difference in mean escape latency vs dementia group at 5 days ([2]; AD mice): 19 s | mean escape latency at 4 days ([2]; AD mice): 26 ± 1 s | mean escape latency at 5 days ([2]; AD mice): 24 ± 1 s | mean escape latency at 3 days (worded) ([2]; vs dementia control group, FIG. 5): significantly short mean escape latency | monomeric Aβ formation in cortex and hippocampus (monomeric Aβ42): monomeric Aβ formation was hardly observed | plaques (MX04) in brain (monomeric Aβ42): plaques were hardly observed | Aβ aggregates (ThT) in brain (Aβ aggregates): Aβ aggregates were hardly observed

From patent US10464901B2, “Composition including benzene diamine derivative for preventing or treating degenerative brain diseases” (UNIST(ULSAN NATIONAL INSTITUTE OF SCIENCE AND TECHNOLOGY), priority 2017, dated 2019)
